# Measured values published in patent US20140356343A1, “COMPOSITION FOR TREATING PARKINSON'S DISEASE” (priority 2011, published 2014).
# Where two headings read alike, the source gives them in different places. No end group written: not given here.
# Tested on: unilateral 6-hydroxydopamine (6-OHDA) lesioned rat
# Format: in vivo, Male Sprague-Dawley rats
# Conditions: for effect on onset of rotational action of apamin: given with apamin
# Source text: The potential antiparkinsonian activity of apitoxin (bee venom; Alyostal®), and certain of its constituents such as apamin, melittin, hyaluronidase, and others were investigated in the standard, unilateral 6-hydroxydopamine (6-OHDA) lesioned rat model, in animals responding to an apomorphine challenge, according to the method previously described with minor modifications (Oh J D, Chartisathian K, Ahmed S M, and Chase T N. (2003) J of Neurosci. Res. 72, 768-780, Oh J D, Chartisathian K, Chase T N and Butcher L L, (2000) Brain Res. 853, 174-185, Oh J D and Chase T N. (2002) Amino Acids 23, 133-139, Oh J D, Del Dotto P, Chase T N. (1997) Neurosci Lett. 228, 5-8, Oh J D, Geller A I, Zhang G, Chase T N. (2003) Br. Res. 971, 18-30, Oh J D, Russell D, Vaughan C L and Chase T N. (1998) Br. Res. 813, 150-159.). Conventional anti-parkinsonian dopamine (DA) agonists, apomorphine, amphetamine, and L-dopa were used as comparator drugs. Control animals received vehicle, phosphate buffered saline (PBS). Rotation (turning) behavior in response to drug challenge was used as a predictor of anti-parkinson activity. All compounds or vehicle were administered either subcutaneously (s.c.) or intraperitonealy (i.p.).
# The anti-parkinson activity of various test substances was studied as previously described 1-6. Male Sprague-Dawley rats weighing approximately 300 g were housed with free access to food and water. Under […] (50 mg/kg, i.p.), the nigrostriatal pathway was unilaterally lesioned by administering 6-OHDA HCl (8 μg in 4 μL of saline with 0.02% ascorbate) into the left medial forebrain bundle (AP −5.0, L 1.3, V 8.0 from the dura mater). Following surgery, rats were challenged with apomorphine (0.1 mg/kg, s.c.), to confirm the lesion of nigro-striatal pathway. Rats that responded to apomorphine were kept for further testing.
# Rats received test drugs, comparator drugs, or vehicle on post-surgical Week 3 following 6-OHDA lesioning and subsequently for additional […] (Week 4-10 post-surgery).
# Rotation behavior was measured by placing rats in a rotometer and measuring turning behavior over 5-minute periods (5-min bins). To measure rotation behavior, each animal was placed at least 10 minutes prior to the drug or vehicle administration into a rotometer and turning was measured. Animals then received test drugs, and turning behavior was measured as described above for 4 to 12 hours post-drug administration.
# [1] = Melittin 0.5 to 3 mg/kg with apamin 0.5 to 1.0 mg/kg
# [2] = Melittin alone, dose range 1-3 mg/kg
# [3] = Hyaluronidase alone, dose range 10 to 30 mg/kg
# [4] = PL-A2 alone, approximately 2 and 3 mg/kg i.p.
# [5] = Phospholipase A2 alone, dose range 2 to 3 mg/kg
molecule,measurement,setting,value
"CC(C)C[C@@H]1NC(=O)[C@H](C)NC(=O)[C@H]([C@@H](C)O)NC(=O)[C@H](CCC(=O)O)NC(=O)[C@@H]2CCCN2C(=O)[C@H](C)NC(=O)[C@H](CCCCN)NC(=O)[C@@H]2CSSC[C@@H](C(=O)N[C@@H](CCC(N)=O)C(=O)N[C@@H](CCC(N)=O)C(=O)N[C@@H](Cc3cnc[nH]3)C(N)=O)NC(=O)[C@H](CCCNC(=N)N)NC(=O)[C@H](CCCNC(=N)N)NC(=O)[C@H](C)NC(=O)[C@H](CSSC[C@H](N)C(=O)N[C@@H](CC(N)=O)C(=O)N2)NC1=O [Apamin, apamin]",Atypical Motor Behaviors,Apamin 0.5 mg/kg alone,None
same,Atypical Motor Behaviors,Apamin 1 mg/kg alone,Mild
same,Atypical Motor Behaviors (dose at which seen),apamin alone,≧1.5 mg/kg
same,doses at which abnormal motor behaviors increasingly interfered with normal and rotatory motor behaviors,apamin alone,1.5 to 3.0 mg/kg
same,doses at which abnormal motor behaviors were clinically insignificant,apamin alone,0.75 to 1.50 mg/kg
same,dose at which atypical motor behavior began to appear,"apamin alone, tremors, dystonic postures, alterations in muscular tone, locomotor incoordination",about 1.5 mg/kg
same,therapeutic index compared with apitoxin,"motoric response, apamin alone",lower therapeutic index
"CN1CCc2cccc3c2[C@H]1Cc1ccc(O)c(O)c1-3 [Apomorphine, apomorphine, reference compound]",effect on apamin-induced contralateral rotations,"apomorphine co-administration at less than standard dose, 0.005 mg/kg s.c.",mildly potentiate
CC[C@H](C)[C@H](NC(=O)CN)C(=O)NCC(=O)N[C@@H](C)C(=O)N[C@H](C(=O)N[C@@H](CC(C)C)C(=O)N[C@@H](CCCCN)C(=O)N[C@H](C(=O)N[C@@H](CC(C)C)C(=O)N[C@H](C(=O)N[C@H](C(=O)NCC(=O)N[C@@H](CC(C)C)C(=O)N1CCC[C@H]1C(=O)N[C@@H](C)C(=O)N[C@@H](CC(C)C)C(=O)N[C@H](C(=O)N[C@@H](CO)C(=O)N[C@@H](Cc1c[nH]c2ccccc12)C(=O)N[C@H](C(=O)N[C@@H](CCCCN)C(=O)N[C@@H](CCCNC(=N)N)C(=O)N[C@@H](CCCCN)C(=O)N[C@@H](CCCNC(=N)N)C(=O)N[C@@H](CCC(N)=O)C(=O)N[C@@H](CCC(N)=O)C(N)=O)[C@@H](C)CC)[C@@H](C)CC)[C@@H](C)O)[C@@H](C)O)C(C)C)C(C)C [Melittin],effect on rotatory response to apamin,0.25 mg/kg apamin and 0.75 mg/kg melittin,potentiated
same,atypical motor behaviors that apamin usually induces,[1],mild to absence
same,onset of contralateral rotations,[1],faster onset
same,Atypical Motor Behaviors,[2],None
same,Rotational Response Contralateral,[2],10 number of turns in 12 hours
same,Rotational Response Ipsilateral,[2],45 to 50 number of turns in 12 hours
same,ability similar to apamin to induce a conspicuous turning response,apitoxin component given alone,none
same,effect on onset of rotational action of apamin,,significantly hasten
same,rotational response,"melittin alone 0.5 to 10 mg/kg i.p., contralateral more frequent than ipsilateral","modest, intermittent rotational response"
"CC(N)Cc1ccccc1 (centres unmarked) [amphetamine, reference compound]",effect on apamin-induced ipsilateral rotation,amphetamine co-administration at less than the standard dose of 0.05 mg/kg i.p.,mildly potentiate
"NCCc1c[nH]cn1 [histamine, Histamine, reference compound]",ability similar to apamin to induce a conspicuous turning response,"rat, in vivo",none
"N[C@@H](Cc1ccc(O)c(O)c1)C(=O)O [levodopa, reference compound]",effect on apamin-induced contralateral rotations,"levodopa co-administration at less than standard dose, 5 mg/kg i.p.",mildly potentiate
"HTGAVLAGV [HTGAVLAGV, reference compound]",Atypical Motor Behaviors,"HTGAVLAGV alone, 1-10 mg/kg",None
Hyaluronidase,effect on atypical motor behaviors induced by apamin,1.0 mg/kg apamin and 20 mg/kg hyaluronidase,reduced
same,Atypical Motor Behaviors,[3],None
same,Rotational Response Contralateral,[3],5 number of turns in 12 hours
same,Rotational Response Ipsilateral,[3],40 number of turns in 12 hours
same,ability similar to apamin to induce a conspicuous turning response,apitoxin component given alone,none
same,effect on ipsilateral turning behavior induced by apamin,hyaluronidase 5 to 20 mg/kg i.p. with apamin 0.1 to 1.0 mg/kg,mildly potentiated
same,turning,"hyaluronidase given alone, 0.5 to 30 mg/kg i.p.",did not induce turning
same,effect on atypical motor behaviors observed with higher doses of apamin,"hyaluronidase with apamin, vs apamin given alone",decreased
"Mast Cell Degranulating Peptide (IKCNCKRHVIKPHICRKICGKN; ends and bridges not checked; cysteine pairing not given here; UniProt P01499 28-49, looked up) [apitoxin component, GenScript #RP10663, reference compound]",ability similar to apamin to induce a conspicuous turning response,apitoxin component given alone,none
Phospholipase A-2 [Phospholipase A2],effect on rotatory response to apamin,0.5 mg/kg apamin and 5 mg/kg PLA-2,potentiated
same,duration of ipsilateral rotations,[4],about 4 hours
same,rotational response,[4],induced ipsilateral rotations
same,start of ipsilateral rotations after administration,[4],1 to 4 h
same,Atypical Motor Behaviors,PL-A2 given alone,No atypical motor behaviors were observed
same,motor response,"PL-A2 given alone, 1 mg/kg i.p.",minimal squirming response
same,effect on onset of turning behavior,PLA-2 given with apamine,accelerated
same,effect on turning behavior,PLA-2 given with apamine,moderately potentiated
same,Atypical Motor Behaviors,[5],None
same,Rotational Response Contralateral,[5],10 number of turns in 12 hours
same,Rotational Response Ipsilateral,[5],50 to 60 number of turns in 12 hours
same,ability similar to apamin to induce a conspicuous turning response,apitoxin component given alone,none
same,effect on onset of rotational action of apamin,,significantly hasten
Secapin [reference compound],Atypical Motor Behaviors,"Secapin alone, 1-20 mg/kg",None
same,Rotational Response Contralateral,"Secapin alone, 1-20 mg/kg",5 number of turns in 12 hours
same,Rotational Response Ipsilateral,"Secapin alone, 1-20 mg/kg",40 number of turns in 12 hours
same,rotational behavior above baseline (spontaneous rotation),Secapin at 1 to 20 mg/kg,little or no rotational behavior
same,ability similar to apamin to induce a conspicuous turning response,apitoxin component given alone,none
"Tertiapin (ALCNCNRIIIPHMCWKKCGKK; UniProt P56587 1-21, looked up) [apitoxin component, Sigma-Aldrich #T8316, reference compound]",Atypical Motor Behaviors,"Tertiapin alone, 1 and 3 mg/kg",None
same,Rotational Response Contralateral,"Tertiapin alone, 1 and 3 mg/kg",5 number of turns in 12 hours
same,Rotational Response Ipsilateral,"Tertiapin alone, 1 and 3 mg/kg",40 number of turns in 12 hours
same,rotational behavior above baseline (spontaneous rotation),Tertiapin at 1 and 3 mg/kg,little or no rotational behavior
same,ability similar to apamin to induce a conspicuous turning response,apitoxin component given alone,none
